In patent US8349824B2, “Triazolopyridine compounds” (Hoffmann-La Roche Inc., priority 2010, dated 2013):

biological target: T1, human PDE10A full length (Homo sapiens, UniProt Q9Y233); test: PDE10A Scintillation Proximity Assay (SPA), human PDE10A full length assay; type: biochemical; conditions: 50 nM cGMP + 50 nM [3H]-cGMP, 20 minutes at room temperature, read-out: PDE10A inhibition IC50
T1 construct: purchased Enzo Life Science, Lausen, Switzerland SE-534
Description: The following test was carried out in order to determine the activity of the compounds of the present invention. PDE10 activity of the compounds of the present invention was determined using a Scintillation Proximity Assay (SPA)-based method similar to the one previously described (Fawcett, L. et al., Proc Natl Acad Sci USA (2000) 97(7):3702-3707).
The human PDE10A full length assay was performed in 96-well micro titer plates. The reaction mixture of 50 μl contained 20 mM HEPES pH=7.5/10 mM MgCl2/0.05 mg/ml BSA (Sigma cat. #A-7906), 50 nM cGMP (Sigma, cat. #G6129) and 50 nM [^3H]-cGMP (GE Healthcare, cat. #TRK392 S.A. 13.2Ci/mmol), 3.75 ng/well PDE10A enzyme (Enzo Life Science, Lausen, Switzerland cat #SE-534) with or without a specific test compound. A range of concentrations of the potential inhibitor was used to generate data for calculating the concentration of inhibitor resulting in 50% of the effect (e.g. IC50, the concentration of the competitor inhibiting PDE10A activity by 50%). Non-specific activity was tested without the enzyme. The reaction was initiated by the addition of the substrate solution (cGMP and [^3H]-cGMP) and allowed to progress for 20 minutes at room temperature. The reaction was terminated by adding 25 μl of YSi-SPA scintillation beads (GE Healthcare, cat. #RPNQ0150) in 18 mM zinc sulphate solution (stop reagent). After 1 h under shaking, the plate was centrifuged one minute at 170 g to allow beads to settle. Afterwards, radioactive counts were measured on a Perkin Elmer TopCount Scintillation plate reader.

T1 sequence (Q9Y233 1-779 isoform Q9Y233-1): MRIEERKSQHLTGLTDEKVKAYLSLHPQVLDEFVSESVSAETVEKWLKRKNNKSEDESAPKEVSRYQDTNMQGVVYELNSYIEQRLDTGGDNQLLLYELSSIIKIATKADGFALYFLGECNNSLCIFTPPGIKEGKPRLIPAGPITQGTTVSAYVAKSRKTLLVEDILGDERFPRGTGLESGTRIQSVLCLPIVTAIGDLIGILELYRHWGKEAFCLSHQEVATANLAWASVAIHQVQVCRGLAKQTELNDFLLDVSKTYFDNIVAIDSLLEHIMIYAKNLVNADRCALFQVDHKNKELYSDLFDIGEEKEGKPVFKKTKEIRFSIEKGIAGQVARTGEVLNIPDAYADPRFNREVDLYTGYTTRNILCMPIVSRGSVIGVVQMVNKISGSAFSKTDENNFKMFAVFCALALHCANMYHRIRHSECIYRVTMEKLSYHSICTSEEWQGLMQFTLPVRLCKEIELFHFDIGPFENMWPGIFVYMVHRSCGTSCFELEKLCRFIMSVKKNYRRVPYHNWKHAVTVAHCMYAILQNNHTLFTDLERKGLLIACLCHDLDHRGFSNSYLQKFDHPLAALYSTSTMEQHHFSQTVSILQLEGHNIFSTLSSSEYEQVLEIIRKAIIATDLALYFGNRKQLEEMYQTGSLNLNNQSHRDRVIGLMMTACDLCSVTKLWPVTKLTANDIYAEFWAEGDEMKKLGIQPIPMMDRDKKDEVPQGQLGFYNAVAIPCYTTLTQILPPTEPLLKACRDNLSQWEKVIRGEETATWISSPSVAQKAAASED

| SMILES | IC50 [nM] |
| --- | --- |
| CCN(C)C(=O)c1cnn(C)c1C(=O)Nc1ccn2nc(-c3cccc(OC)c3)nc2c1 [Example 79, 2-Methyl-2H-pyrazole-3,4-dicarboxylic acid 4-(ethyl-methyl-amide)3-{[2-(3-methoxy-phenyl)-[1,2,4]triazolo[1,5-a]pyridin-7-yl]-amide}] | 1.73 |
| Cn1ncc(C(=O)NCCF)c1C(=O)Nc1ccn2nc(-c3ccccc3)nc2c1 [Example 96, 2-Methyl-2H-pyrazole-3,4-dicarboxylic acid 4-[(2-fluoro-ethyl)-amide]3-[(2-phenyl[1,2,4]triazolo[1,5-a]pyridin-7-yl)-amide]] | 2.12 |
| COC(=O)CN(C)C(=O)c1cnn(C)c1C(=O)Nc1ccn2nc(N3CCOCC3)nc2c1 [Example 95, {Methyl-[1-methyl-5-(2-morpholin-4-yl-[1,2,4]triazolo[1,5-a]pyridin-7-ylcarbamoyl)-1H-pyrazole-4-carbonyl]-amino}-acetic acid methyl ester] | 50.4 |
| CCN(C)C(=O)c1cnn(C)c1C(=O)Nc1ccn2nc(-c3ccccc3OCCF)nc2c1 [Example 101, 2-Methyl-2H-pyrazole-3,4-dicarboxylic acid 4-(ethyl-methyl-amide)3-({2-[2-(2-fluoro-ethoxy)-phenyl]-[1,2,4]triazolo[1,5-a]pyridin-7-yl}-amide)] | 0.65 |
| COC(=O)CN(C)C(=O)c1cnn(C)c1C(=O)Nc1ccn2nc(-c3ccccc3)nc2c1 [Example 93, {Methyl-[1-methyl-5-(2-phenyl-[1,2,4]triazolo[1,5-a]pyridin-7-ylcarbamoyl)-1H-pyrazole-4-carbonyl]-amino}-acetic acid methyl ester] | 2.16 |
| CN(C(=O)c1cnn(C)c1C(=O)Nc1ccn2nc(N(C)C3CC3)nc2c1)C1CC1 [Example 126, 2-Methyl-2H-pyrazole-3,4-dicarboxylic acid 4-(cyclopropyl-methyl-amide)3-{[2-(cyclopropyl-methyl-amino)-[1,2,4]triazolo[1,5-a]pyridin-7-yl]-amide}] | 0.49 |
| Cn1ncc(C(=O)NC2CC2)c1C(=O)Nc1ccn2nc(N3CCOCC3)nc2c1 [Example 113, 2-Methyl-2H-pyrazole-3,4-dicarboxylic acid 4-cyclopropylamide 3-[(2-morpholin-4-yl-[1,2,4]triazolo[1,5-a]pyridin-7-yl)-amide]] | 19.1 |
| CN(c1nc2cc(NC(=O)c3c(C(=O)N4CCOCC4)cnn3C)ccn2n1)C1CC1 [Example 128, 2-Methyl-4-(morpholine-4-carbonyl)-2H-pyrazole-3-carboxylic acid [2-(cyclopropyl-methyl-amino)-[1,2,4]triazolo[1,5-a]pyridine-7-yl]-amide] | 3.37 |
| COc1ccccc1-c1nc2cc(NC(=O)c3c(C(=O)N4CCOCC4)cnn3C)ccn2n1 [Example 69, 2-Methyl-4-(morpholine-4-carbonyl)-2H-pyrazole-3-carboxylic acid [2-(2-methoxy-phenyl)-[1,2,4]triazolo[1,5-a]pyridin-7-yl]-amide] | 0.68 |
| CN(C(=O)c1cnn(C)c1C(=O)Nc1ccn2nc(N3CCOCC3)nc2c1)C1CC1 [Example 53, N4-cyclopropyl-N4,1-dimethyl-N5-(2-morpholino-[1,2,4]triazolo[1,5-a]pyridin-7-yl)-1H-pyrazole-4,5-dicarboxamide] | 1.12 |
| COCCN(C)C(=O)c1cnn(C)c1C(=O)Nc1ccn2nc(-c3cccc(OCF)c3)nc2c1 [Example 89, 2-Methyl-2H-pyrazole-3,4-dicarboxylic acid 3-{[2-(3-fluoromethoxy-phenyl)-[1,2,4]triazolo[1,5-a]pyridin-7-yl]-amide} 4-[(2-methoxy-ethyl)-methyl-amide]] | 0.59 |
| Cn1ncc(C(=O)N2CCOCC2)c1C(=O)Nc1ccn2nc(N3CCCC3=O)nc2c1 [Example 133, Methyl-4-(morpholine-4-carbonyl)-N-(2-(2-oxopyrrolidin-1-yl)-[1,2,4]triazolo[1,5-a]pyridin-7-yl)-1H-pyrazole-5-carboxamide] | 16.1 |
